The CheMixHub ionic liquid set
± gives the uncertainty stated by the source.

Assay: xn = mol fraction of the nth substance listed

`CCCC[n+]1ccn(C)c1C.NCC(=O)[O-]` + O gave a viscosity (293.15 K, 100 kPa, x1 = 0.3904) of 66 ± 13 mPa·s, a viscosity (298.15 K, 100 kPa, x1 = 0.0999) of 13.7 ± 2.7 mPa·s and a viscosity (298.15 K, 100 kPa, x1 = 0.1982) of 22.2 ± 4.4 mPa·s. It also gave a viscosity (298.15 K, 100 kPa, x1 = 0.3003) of 34.6 ± 6.9 mPa·s, a viscosity (298.15 K, 100 kPa, x1 = 0.6) of 94 ± 19 mPa·s and a viscosity (298.15 K, 100 kPa, x1 = 0.6999) of 119 ± 24 mPa·s. The viscosity (298.15 K, 100 kPa, x1 = 0.798) was 146 ± 30 mPa·s, the viscosity (303.15 K, 100 kPa, x1 = 0.9001) was 125 ± 25 mPa·s and the viscosity (308.15 K, 100 kPa, x1 = 0.0999) was 7.8 ± 1.6 mPa·s. It also gave a viscosity (308.15 K, 100 kPa, x1 = 0.3003) of 20.2 ± 4 mPa·s, a viscosity (308.15 K, 100 kPa, x1 = 0.3904) of 28.4 ± 5.7 mPa·s and a viscosity (308.15 K, 100 kPa, x1 = 0.6999) of 65 ± 13 mPa·s. The viscosity (313.15 K, 100 kPa, x1 = 0.3904) was 23.4 ± 4.7 mPa·s, the viscosity (313.15 K, 100 kPa, x1 = 0.9001) was 71 ± 14 mPa·s and the viscosity (318.15 K, 100 kPa, x1 = 0.6999) was 46.4 ± 9.3 mPa·s. For the same compound, the viscosity (318.15 K, 100 kPa, x1 = 0.798) was 54 ± 11 mPa·s.

With `CCOCC[n+]1ccn(C)c1.O=S(=O)([N-]S(=O)(=O)C(F)(F)F)C(F)(F)F` + O the viscosity (283 K, 101 kPa, x1 = 0.8424) was 68.1 ± 1.5 mPa·s and the viscosity (298.1 K, 101 kPa, x1 = 0.8424) was 34 ± 0.8 mPa·s.

In the case of `CC[n+]1ccccc1.O=S(=O)([O-])C(F)(F)F` + O, the viscosity (293.15 K, 101 kPa, x1 = 0.067) is reported as 2.47 ± 0.15 mPa·s, the viscosity (298.15 K, 101 kPa, x1 = 0.067) is reported as 2.16 ± 0.13 mPa·s and the viscosity (298.15 K, 101 kPa, x1 = 0.498) is reported as 15.04 ± 0.91 mPa·s. The viscosity (313.15 K, 101 kPa, x1 = 0.689) was 17.4 ± 1 mPa·s, the viscosity (343.15 K, 101 kPa, x1 = 0.689) was 8.42 ± 0.51 mPa·s and the viscosity (353.15 K, 101 kPa, x1 = 0.893) was 10.74 ± 0.65 mPa·s.

Work on `CC[n+]1ccn(C)c1.[Cl-]` + O yielded a viscosity (278.15 K, 100 kPa, x1 = 9.063e-05) of 1.528 ± 0.011 mPa·s, a viscosity (278.15 K, 100 kPa, x1 = 0.0001805) of 1.531 ± 0.011 mPa·s and a viscosity (278.15 K, 100 kPa, x1 = 0.0003599) of 1.533 ± 0.011 mPa·s. For the same compound, the viscosity (278.15 K, 100 kPa, x1 = 0.0005394) was 1.538 ± 0.011 mPa·s, the viscosity (278.15 K, 100 kPa, x1 = 0.0007199) was 1.541 ± 0.011 mPa·s and the viscosity (278.15 K, 100 kPa, x1 = 0.0008996) was 1.545 ± 0.012 mPa·s. The viscosity (278.15 K, 100 kPa, x1 = 0.001079) was 1.547 ± 0.012 mPa·s, the viscosity (278.15 K, 100 kPa, x1 = 0.001351) was 1.554 ± 0.012 mPa·s and the viscosity (278.15 K, 100 kPa, x1 = 0.001799) was 1.563 ± 0.012 mPa·s. The viscosity (283.15 K, 100 kPa, x1 = 9.063e-05) was 1.312 ± 0.01 mPa·s, the viscosity (283.15 K, 100 kPa, x1 = 0.0001805) was 1.314 ± 0.01 mPa·s and the viscosity (283.15 K, 100 kPa, x1 = 0.0003599) was 1.317 ± 0.01 mPa·s. The viscosity (283.15 K, 100 kPa, x1 = 0.0005394) was 1.321 ± 0.01 mPa·s, the viscosity (283.15 K, 100 kPa, x1 = 0.0007199) was 1.323 ± 0.01 mPa·s and the viscosity (283.15 K, 100 kPa, x1 = 0.0008996) was 1.327 ± 0.01 mPa·s. The viscosity (283.15 K, 100 kPa, x1 = 0.001079) was 1.329 ± 0.01 mPa·s, the viscosity (283.15 K, 100 kPa, x1 = 0.001351) was 1.335 ± 0.01 mPa·s and the viscosity (283.15 K, 100 kPa, x1 = 0.001799) was 1.344 ± 0.01 mPa·s. It also gave a viscosity (288.15 K, 100 kPa, x1 = 9.063e-05) of 1.141 ± 0.009 mPa·s, a viscosity (288.15 K, 100 kPa, x1 = 0.0001805) of 1.144 ± 0.009 mPa·s and a viscosity (288.15 K, 100 kPa, x1 = 0.0003599) of 1.148 ± 0.009 mPa·s. For the same compound, the viscosity (288.15 K, 100 kPa, x1 = 0.0005394) was 1.15 ± 0.009 mPa·s, the viscosity (288.15 K, 100 kPa, x1 = 0.0007199) was 1.152 ± 0.009 mPa·s and the viscosity (288.15 K, 100 kPa, x1 = 0.0008996) was 1.156 ± 0.009 mPa·s. The viscosity (288.15 K, 100 kPa, x1 = 0.001079) was 1.158 ± 0.009 mPa·s, the viscosity (288.15 K, 100 kPa, x1 = 0.001351) was 1.163 ± 0.009 mPa·s and the viscosity (288.15 K, 100 kPa, x1 = 0.001799) was 1.17 ± 0.009 mPa·s. The viscosity (293.15 K, 100 kPa, x1 = 9.063e-05) was 1.004 ± 0.008 mPa·s, the viscosity (293.15 K, 100 kPa, x1 = 0.0001805) was 1.006 ± 0.008 mPa·s and the viscosity (293.15 K, 100 kPa, x1 = 0.0003599) was 1.008 ± 0.008 mPa·s. For the same compound, the viscosity (293.15 K, 100 kPa, x1 = 0.0005394) was 1.011 ± 0.008 mPa·s, the viscosity (293.15 K, 100 kPa, x1 = 0.0007199) was 1.013 ± 0.008 mPa·s and the viscosity (293.15 K, 100 kPa, x1 = 0.0008996) was 1.015 ± 0.008 mPa·s. For the same compound, the viscosity (293.15 K, 100 kPa, x1 = 0.001079) was 1.018 ± 0.008 mPa·s, the viscosity (293.15 K, 100 kPa, x1 = 0.001351) was 1.023 ± 0.008 mPa·s and the viscosity (293.15 K, 100 kPa, x1 = 0.001799) was 1.029 ± 0.008 mPa·s. It also gave a viscosity (298.15 K, 100 kPa, x1 = 9.063e-05) of 0.892 ± 0.007 mPa·s, a viscosity (298.15 K, 100 kPa, x1 = 0.0001805) of 0.894 ± 0.007 mPa·s and a viscosity (298.15 K, 100 kPa, x1 = 0.0003599) of 0.896 ± 0.007 mPa·s. The viscosity (298.15 K, 100 kPa, x1 = 0.0005394) was 0.898 ± 0.007 mPa·s, the viscosity (298.15 K, 100 kPa, x1 = 0.0007199) was 0.899 ± 0.007 mPa·s and the viscosity (298.15 K, 100 kPa, x1 = 0.0008996) was 0.902 ± 0.007 mPa·s. It also gave a viscosity (298.15 K, 100 kPa, x1 = 0.001079) of 0.904 ± 0.007 mPa·s, a viscosity (298.15 K, 100 kPa, x1 = 0.001351) of 0.908 ± 0.007 mPa·s and a viscosity (298.15 K, 100 kPa, x1 = 0.001799) of 0.914 ± 0.007 mPa·s. For the same compound, the viscosity (303.15 K, 100 kPa, x1 = 9.063e-05) was 0.799 ± 0.006 mPa·s, the viscosity (303.15 K, 100 kPa, x1 = 0.0001805) was 0.8 ± 0.006 mPa·s and the viscosity (303.15 K, 100 kPa, x1 = 0.0003599) was 0.802 ± 0.006 mPa·s. It also gave a viscosity (303.15 K, 100 kPa, x1 = 0.0005394) of 0.804 ± 0.006 mPa·s, a viscosity (303.15 K, 100 kPa, x1 = 0.0007199) of 0.805 ± 0.006 mPa·s and a viscosity (303.15 K, 100 kPa, x1 = 0.0008996) of 0.807 ± 0.006 mPa·s. The viscosity (303.15 K, 100 kPa, x1 = 0.001079) was 0.809 ± 0.006 mPa·s, the viscosity (303.15 K, 100 kPa, x1 = 0.001351) was 0.813 ± 0.006 mPa·s and the viscosity (303.15 K, 100 kPa, x1 = 0.001799) was 0.817 ± 0.006 mPa·s. For the same compound, the viscosity (308.15 K, 100 kPa, x1 = 9.063e-05) was 0.72 ± 0.006 mPa·s, the viscosity (308.15 K, 100 kPa, x1 = 0.0001805) was 0.721 ± 0.006 mPa·s and the viscosity (308.15 K, 100 kPa, x1 = 0.0003599) was 0.723 ± 0.006 mPa·s. For the same compound, the viscosity (308.15 K, 100 kPa, x1 = 0.0005394) was 0.724 ± 0.006 mPa·s, the viscosity (308.15 K, 100 kPa, x1 = 0.0007199) was 0.725 ± 0.006 mPa·s and the viscosity (308.15 K, 100 kPa, x1 = 0.0008996) was 0.728 ± 0.006 mPa·s. It also gave a viscosity (308.15 K, 100 kPa, x1 = 0.001079) of 0.729 ± 0.006 mPa·s, a viscosity (308.15 K, 100 kPa, x1 = 0.001351) of 0.732 ± 0.006 mPa·s and a viscosity (308.15 K, 100 kPa, x1 = 0.001799) of 0.736 ± 0.006 mPa·s. The viscosity (313.15 K, 100 kPa, x1 = 9.063e-05) was 0.653 ± 0.005 mPa·s, the viscosity (313.15 K, 100 kPa, x1 = 0.0001805) was 0.654 ± 0.005 mPa·s and the viscosity (313.15 K, 100 kPa, x1 = 0.0003599) was 0.655 ± 0.005 mPa·s. It also gave a viscosity (313.15 K, 100 kPa, x1 = 0.0005394) of 0.656 ± 0.005 mPa·s, a viscosity (313.15 K, 100 kPa, x1 = 0.0007199) of 0.658 ± 0.005 mPa·s and a viscosity (313.15 K, 100 kPa, x1 = 0.0008996) of 0.659 ± 0.005 mPa·s. It also gave a viscosity (313.15 K, 100 kPa, x1 = 0.001079) of 0.661 ± 0.005 mPa·s, a viscosity (313.15 K, 100 kPa, x1 = 0.001351) of 0.664 ± 0.005 mPa·s and a viscosity (313.15 K, 100 kPa, x1 = 0.001799) of 0.667 ± 0.005 mPa·s. The viscosity (373 K, 100 kPa, x1 = 0.87) was 23 ± 9 mPa·s, the viscosity (373 K, 100 kPa, x1 = 0.9302) was 24 ± 10 mPa·s and the viscosity (373 K, 100 kPa, x1 = 0.9756) was 32 ± 13 mPa·s. The viscosity (373 K, 100 kPa, x1 = 1) was 36 ± 14 mPa·s.
